The source of these data is PubChem BioAssay (NCI).

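Five compound concentrations were applied to cells in 96-well plates for 48 hours; endpoints were derived by simple linear interpolation of the resulting dose-response curve. GI50 = concentration required for 50% inhibition of growth. TGI: total growth inhibition.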

The subject of the assay is MDA-MB-468 breast. As to the kind of experiment: growth of human tumour cells (NCI), 48 h.
Take `Cn1ccnc1C(=O)/C=C/c1ccc(C(=O)Nc2ccc(S(F)(F)(F)(F)F)cc2)cc1`: the GI50 is 0.423 µM and the TGI came to 13.8 µM.

In the case of `CCCCCCc1cc2cc(-c3nc4ccccc4[nH]3)c(=Nc3ccccc3C)oc2cc1O`, the GI50 was 1.82 µM and the TGI turned out to be 3.74 µM.

With `CCN1/C(=C/C=C/c2n(-c3ccccc3)c3ccc(-c4nc5ccccc5s4)cc3[n+]2CC)N(c2ccccc2)c2ccc(-c3nc4ccccc4s3)cc21`, the GI50 was 0.283 µM and the TGI was above 50 µM.

Turning to `N#C/C(=N\Nc1ccc(Cl)cc1)C(=O)Nc1cc(-c2ccccc2)nn1-c1ccccc1`, the GI50 is 1.84 µM and the TGI worked out at 5.93 µM.

With `CN(c1cc2ncc(=O)[nH]c2cc1NC(N)=NCc1ccc(Cl)cc1)C1CCCCC1`, the GI50 was 1.23 µM and the TGI worked out at 4.42 µM.

Turning to `Cc1ccc2c(c1)c1nc3cc(C)c(C)cc3nc1n2CCN(C)C`, the GI50 was 1.39 µM and the TGI is 3.54 µM.

For `Clc1ccc(/C=C/c2cc(N3CCOCC3)c3cc(Cl)c(Cl)cc3n2)cc1`, the GI50 was above 100 µM and the TGI is above 100 µM.

In the case of `O=c1ccc(N=Nc2ccc([N+](=O)[O-])cc2)ccc1O`, the GI50 was 3.8 µM and the TGI was 81.2 µM.

As to `Cn1cc(C2=C(c3cn(CCO)c4ccccc34)C(=O)NC2=O)c2ccccc21`, the GI50 is 2.52 µM and the TGI came to 10.8 µM.

In the case of `c1ccc(C2CC(c3cccc(Nc4ccncc4)c3)=NN2c2ccccc2)cc1` (stereo not given), the GI50 is 1.49 µM and the TGI was determined as 3.02 µM.

As for `Cc1cc(NCCCNc2ccnc3cc(Cl)ccc23)nc(N2CCN(C)CC2)n1`, the GI50 was 1.76 µM and the TGI turned out to be 5.97 µM.

For `N/C(=C\C(=O)n1nc(-c2ccccc2)cc1N)c1ccccc1`, the GI50 is 5.54 µM and the TGI was 56.3 µM.

Consider `COc1cc(-c2nc3sccn3c2-c2ccnc(NCCNS(=O)(=O)c3ccc(Cl)cc3)n2)ccc1F`, for which the GI50 was 2.48 µM and the TGI is above 100 µM.

Regarding `CC(=O)N1N=C(c2ccc(Nc3nc(Nc4ccc(Cl)cc4)nc(Nc4ccc(Cl)cc4)n3)cc2)CC1c1ccc([N+](=O)[O-])cc1` (stereo not given), the GI50 is 3.08 µM and the TGI is above 100 µM.

`CN(Cc1ccc(Cl)cc1)c1ccc(CO)c(Cl)c1`: the GI50 was 0.0657 µM and the TGI stood at 0.219 µM.

With `Cn1cc(C2=C(c3cccc(N)c3)C(=O)NC2=O)c2ccccc21`, the GI50 is above 18.2 µM and the TGI was above 25 µM.

Turning to `COc1cc2cc(C(=O)CCC(=O)O)sc2cc1OC`, the GI50 is above 100 µM and the TGI is above 100 µM.

As for `COc1cccc(C2C3=C(COC3=O)N(CCO)c3cc(OC)ccc32)c1` (stereo not given), the GI50 was 0.0365 µM and the TGI came out at 1.26 µM.

On to `O=C(Nc1ccc(F)cc1)Nc1ccccc1CNc1nc(Nc2ccc(OCCN3CCCC3)cc2)ncc1Cl`, for which the GI50 is 1.12 µM and the TGI is 2.89 µM.

Turning to `COc1ccc(C2CC(c3cccc(Nc4ccncc4)c3)=NN2c2ccc(Cl)cc2)cc1` (stereo not given), the GI50 was 1.45 µM and the TGI turned out to be 2.95 µM.

For `CCCCCc1nc2c(c3c1CCCC3)CCCC2`, the GI50 is 4.13 µM and the TGI turned out to be 18.1 µM.

Regarding `O=c1c2c3c(sc2n2c(-c4cc(-c5ccccc5)no4)nnc2n1Cc1ccccc1)CCCC3`, the GI50 is 14.6 µM and the TGI was found to be 43.8 µM.

In the case of `CCCc1cc(O)c2c3c(c(=O)oc2c1)CN(C)CC3`, the GI50 was 24.2 µM and the TGI was 85.2 µM.

Regarding `CC(C)Nc1ccc(Nc2ccccc2)cc1`, the GI50 is 4.45 µM and the TGI is 19.7 µM.

Take `Nc1ccccc1-c1ccc([N+](=O)[O-])cc1`: the GI50 is 13.4 µM and the TGI is above 100 µM.

In the case of `CC(C)[C@H]1CC[C@H]2[C@@H](CC[C@H]3[C@](C)(CN)CCC[C@]23C)C1`, the GI50 was 8.83 µM and the TGI turned out to be 23.5 µM.

For the compound `CCOc1ccc(-c2cnnn2-c2nonc2-n2cccc2)cc1`, the GI50 was 0.12 µM and the TGI was 0.495 µM.

Take `Oc1ccc(CN2CCC(N3CCOCC3)CC2)c2cccnc12`: the GI50 was 22.6 µM and the TGI is 60.6 µM.

As to `N#Cc1ncc(-c2ccc(C(F)(F)F)cc2)c(NCc2cc(C(F)(F)F)cc(C(F)(F)F)c2)n1`, the GI50 is 2.56 µM and the TGI was determined as 7.38 µM.

In the case of `Cc1cc2cc3cc(C)c(N(C)C)cc3[n+](C)c2cc1N(C)C`, the GI50 was 0.95 µM and the TGI worked out at 13.5 µM.

On to `Oc1ccccc1/C=N/Nc1nc(N/N=C/c2ccccc2O)nc(N2CCOCC2)n1`, for which the GI50 is 4.11 µM and the TGI was 35.9 µM.

For `O=c1c2ccccc2c(Br)c(Br)c2ccccc12`, the GI50 was 2.74 µM and the TGI was 9.55 µM.

Consider `C/C=C/C/C=C/CCC(=O)[C@H]1O[C@H]1C(N)=O`, for which the GI50 was 11.7 µM and the TGI came to 25.9 µM.

Turning to `CC(=O)Nc1ccc(/C=C/C(=O)c2ccccc2)cc1`, the GI50 is 11.7 µM and the TGI is 26 µM.

For `O=S(=O)(Cc1ccc(Cl)cc1Cl)c1ccc(Cl)cc1`, the GI50 is 0.265 µM and the TGI is 2.19 µM.

For `CC/C(=C(/c1ccc(OCCN(C)C)cc1)c1ccc(OC(=O)CCC(=O)c2c(C)[nH]c(/C=C3\N=C(c4ccc[nH]4)C=C3OC)c2C)cc1)c1ccccc1`, the GI50 is 2.9 µM and the TGI is 14 µM.

As for `Cc1ccc(NC(=O)Cc2ccc(/C=C/C(=O)c3ncc[nH]3)cc2)cc1`, the GI50 is 3.3 µM and the TGI turned out to be 23.4 µM.

With `CC(C)c1c(C(=O)Nc2ccccc2)c(-c2ccccc2)c(-c2ccc(F)cc2)n1CC[C@@H]1CC=CC(=O)O1`, the GI50 is 1.83 µM and the TGI came out at 3.82 µM.

Take `CCN(CC)c1ccc(/C=C2/C[N+](C)(C)C/C(=C/c3ccc(N(CC)CC)cc3)C2=O)cc1`: the GI50 was 1.32 µM and the TGI was 3.57 µM.

Consider `CCOc1ccccc1NC(=O)c1cc2ccccc2cc1O`, for which the GI50 was 2.38 µM and the TGI came to 7.18 µM.

As for `Clc1cc2c(cc1Cl)Oc1cc(Cl)c(Cl)cc1O2`, the GI50 was above 0.625 µM and the TGI was above 0.625 µM.

In the case of `N#Cc1cccc(OCc2nc(N)nc(N)c2-c2ccc(Cl)c(Cl)c2)c1`, the GI50 was 3.08 µM and the TGI was above 100 µM.

Turning to `COc1cc(C(=O)N2N=C(c3ccc(S(C)(=O)=O)cc3)CC2c2ccco2)cc(OC)c1OC` (stereo not given), the GI50 is 2.49 µM and the TGI was above 26 µM.

In the case of `O=C(CSc1nc2sc3c(c2c(=O)n1-c1ccc(Cl)cc1)CCCC3)NNC(=O)Nc1ccc(Cl)c(C(F)(F)F)c1`, the GI50 was 1.55 µM and the TGI was 3.66 µM.

`O=C1C2C(C(=O)[N]1[Hg][c]1cccs1)C1(Cl)C(Cl)=C(Cl)C2(Cl)C1(Cl)Cl` (stereo not given): the GI50 was 1.25 µM and the TGI came to 2.7 µM.
